The target in series [1] is T1, thrombin (Homo sapiens, UniProt P00734). The conditions noted are these: binding to thrombin; stated for known ligands; cited from earlier work.
Series [2] has as its target T1, thrombin. In words: competitive-binding capillary electrophoresis screening with fluorescently labeled competitive ligand (FCL). The conditions noted are these: for FCL/TG complex peak: FIG. 1. The method, then:
Also prepared is 100 nM of a fluorescently labeled, tight-binding competitive ligand, single-stranded (ss) DNA oligonucleotide 5′-fluorescein-GGTTGGTGTGGTTGG-3′ (Kd=3×10^−9 M; hereinafter “FCL”). The mixture of target and candidate ligand (TG/LG) is first injected into the CE instrument for about ten (10) seconds to give a first plug, followed by a 10-second injection of FCL as the second plug.
Voltage of about 20 kV is applied to initiate electrophoresis, and the unbound competitive ligand (FCL) and bound FCL/TG complex peaks are monitored during CE by means of laser-induced fluorescence and a fluorescence detector positioned at a detection point along the capillary.
Here the thrombin target (TG) is incubated, prior to CE, for five minutes with samples containing hirugen and hirulog-1 at different concentrations. Each of these target/sample mixtures is subjected to a CE screening run, as follows. A plug of target/sample mixture is pressure-injected into the CE instrument for 10 seconds to give a first-injected plug. A second injection plug of 100 nM FCL is then injected for 10 seconds, and then voltage of about 20 kV is applied to start electrophoresis. The CE migration of the FCL and FCL/TG complex are monitored by way of laser-induced fluorescence. Again, the FCL has a higher electrophoretic mobility than the TG, so that the unbound FCL peak appears before that of the FCL/TG complex (see FIG. 2).

For 5′-fluorescein-GGTTGGTGTGGTTGG-3′ [FCL], in the series with thrombin [1], the Kd was 3 nM.

Take “D-Phe-Pro-Arg-Pro-(Gly)4-Asn-Gly-Asp-Phe-Glu-Glu-Ile-Pro-Glu-Glu-Tyr-Leu [hirulog-1]”: at thrombin [1], the Kd was ~2 nM. The FCL/TG complex peak result at thrombin [2] (50 nM hirulog-1 in sample, equivalent to 50 nM thrombin, 100 nM FCL) is “complete disappearance”; on thrombin [2] (increasing concentrations of hirulog-1, 50 nM thrombin pre-incubated 5 min, 100 nM FCL, 20 kV) it was “reduced”. The FCL/TG peak result on thrombin [2] (hirulog-1 in samples also containing hirugen, 100 nM FCL, FIG. 2) is recorded as “decrease”. In addition, the “molar excess of weak-binding hirugen at which the hirulog-1 signal is detectable” value at thrombin [2] (samples containing hirugen and hirulog-1, FIG. 2) was “up to 1,000 fold”.

For “Gly-54-Leu-65 carboxyterminal dodecapeptide of hirudin with sulfated tyrosine [hirugen]”, the Kd at thrombin [1] was 150 nM. In addition, the “change in competitive ligand's (FCL's) CE profile” value on thrombin [2] (pre-incubation of thrombin with 10,000 nM hirugen, 100 nM FCL, FIG. 2) is “no difference”.

As usually defined, the Kd is the equilibrium constant for the complex coming apart.
